Structures can show the parent of a compound that is named as a salt.

Usually melting point stands for the temperature, or range, at which the solid turns liquid.

Compound `CCN1CCN(c2nc(Cc3ccccc3)cc3ccccc23)CC1` (as salt: hydrochloride) [Example 419, 1-(4-ethylpiperazin-1-yl)-3-benzylisoquinoline] returned a melting point of 118 to 119 °C. For `CCN1CCN(c2nc(-c3cccc(OC)c3OC)cc3ccccc23)CC1` (as salt: hydrochloride) the value was 122 to 123 °C; for `CCN1CCN(c2nc(-c3ccc(OC)cc3)cc3ccncc23)CC1` (as salt: hydrochloride) [Example 428, 1-(4-ethylpiperazin-1-yl)-3-(4-methoxyphenyl)-7-azaisoquinoline], 222 °C (dec.). For `CCN1CCN(c2nc(-c3ccc(OCCO)c(OC)c3)cc3ccccc23)CC1` (as salt: hydrochloride) [Example 340, 1-(4-ethylpiperazin-1-yl)-3-[4-(2-hydroxyethoxy)-3-methoxyphenyl]isoquinoline dihydrochloride] the value was 128 to 129 °C. Then `CCN1CCN(c2nc(-c3ccc(OCCCO)cc3)cc3ccsc23)CC1` (as salt: hydrochloride) [Example 434, 7-(4-ethylpiperazin-1-yl)-5-[4-(3-hydroxypropoxy)phenyl]thieno[2,3-c]pyridine dihydrochloride], with 126 to 127 °C. As for `CCN1CCN(c2nc(-c3ccc(CC4CCOCC4)cc3)cc3ccccc23)CC1` (as salt: hydrochloride) [Example 399, 1-(4-Ethylpiperazin-1-yl)-3-[4-(tetrahydropyran-4-yl)Methylphenyl]Isoquinoline Dihydrochloride], the melting point was 182 to 184 °C (dec.). On to `CCN1CCN(c2nc(-c3ccc(N4CCSCC4)nc3)cc3ccsc23)CC1` (as salt: hydrochloride) [Example 264, 5-[2-(4-thiomorpholinyl)pyridin-5-yl]-7-(4-ethylpiperazine-1-yl)thieno[2,3-c]pyridine Hydrochloride], for which the melting point lay in the range of 201 to 203 °C. Turning to `CCN1CCN(c2nc(C#Cc3ccccc3)cc3ccccc23)CC1` (as salt: hydrochloride) [Example 177, 1-(1-Ethylpiperazin-4-Yl)-3-(Phenylethynyl)Isoquinoline Dihydrochloride], the melting point fell in the range of 133 to 136 °C. Then `COc1ccc(-c2cc3ccccc3c(NCCc3ccccn3)n2)cc1.Cl`, with 138 to 140 °C; and `CCCNC(=O)c1ccc(-c2cc3ccccc3c(N3CCN(CC)CC3)n2)cc1` (as salt: hydrochloride) [Example 63, 1-(4-Ethylpiperazin-1-Yl)-3-(4-N-Propylaminocarbonylphenyl)Isoquinoline Hydrochloride], with 149 to 150 °C. For `CCN1CCN(c2nc(-c3nc(C)c(CCO)s3)cc3ccccc23)CC1` (as salt: hydrochloride) the value was 149 to 154 °C; for `CCN1CCN(c2nc(-c3ccc(OC(C)COC)nc3)cc3ccsc23)CC1` (stereo not shown) (as salt: hydrochloride) [Example 267, 5-[2-(2-methoxyethoxy-2-methyl)pyridin-5-yl]-7-(4-ethylpiperazin-1-yl)thieno[2,3-c]pyridine Hydrochloride], 112 to 114 °C. For `CCN1CCN(c2nc(-c3ccc(N4CCOC4=O)cc3)cc3ccccc23)CC1` (as salt: hydrochloride) [Example 95, 3-[4-(3-Oxazolidinone)phenyl]-1-(4-ethylpiperazin-1-yl)isoquinoline Hydrochloride] the value was 171 to 174 °C; for `CCN1CCN(c2nc(-c3ccc(S(=O)(=O)N4CCSCC4)cc3)cc3ccccc23)CC1` (as salt: hydrochloride) [Example 76, 3-[(4-Thiomorpholinyl)Sulfonylphenyl]-1-(4-Ethylpiperazin-1-Yl)Isoquinoline Hydrochloride], 268 to 270 °C (dec.); for `CCN1CCN(c2nc(/C=C/c3cccc(OCCO)c3)cc3ccsc23)CC1` (as salt: hydrochloride) [Example 430, 7-(4-ethylpiperazin-1-yl)-5-[3-(2-hydroxyethoxy)styryl]thieno [2,3-c]pyridine hydrochloride], 98 to 99 °C. `CCN1CCN(c2nc(-c3ccc(OCCOC)c(F)c3)cc3ccccc23)CC1` (as salt: hydrochloride) [Example 367, 1-(4-ethylpiperazin-1-yl)-3-(3-fluoro-4-methoxyethoxyphenyl)isoquinoline dihydrochloride] yielded a melting point of 112.5 to 114 °C. Compound `CCN1CCN(c2nc(-c3ccc(OC)cc3)cc3cc(F)ccc23)CC1` (as salt: hydrochloride) came in with a melting point of 131 to 135 °C. Then `CN1CCN(c2nc(-c3ccc(OCCO)cc3)cc3ccccc23)CC1` (as salt: hydrochloride) [Example 3, 1-(1-methylpiperazin-4-yl)-3-[4-(2-hydroxyethoxy)phenyl]isoquinoline], with 131 to 144 °C; and `CCN1CCN(c2nc(-c3ccc(OC)cc3)cc3cc(OC)ccc23)CC1` (as salt: hydrochloride), with 218 to 220 °C. For the compound `CCN1CCN(c2nc(-c3ccc4c(c3)CC(C)(CO)O4)cc3ccsc23)CC1` (stereo not shown) (as salt: hydrochloride) [Example 456, dihydrochloride], the melting point was 138 to 140 °C (dec.). For `CCN1CCN(c2nc(C3=CCCc4ccc(OC)cc43)cc3ccccc23)CC1` (as salt: oxalate) the value was 150 to 153 °C; for `CCN1CCN(c2nc(-c3ccc4c(c3)OCCO4)cc3ccccc23)CC1` (as salt: hydrochloride) [Example 332, 1-(4-ethylpiperazin-1-yl)-3-(3,4-ethylenedioxyphenyl)isoquinoline dihydrochloride], 141 to 143 °C; for `CCN1CCN(c2nc(-c3ccc(OC)cc3)c(OC)c3ccccc23)CC1` (as salt: hydrochloride) [Example 221, 1-(1-ethylpiperazin-4-yl)-4-methoxy-3-(4-methoxyphenyl)isoquinoline dihydrochloride], 227 to 235 °C.

In turn, `COc1ccc(-c2cc3ccccc3c(N3CCN(C4CC4)CC3)n2)cc1` (as salt: hydrochloride) [Example 239, 1-(1-cyclopropylpiperaziin-4-yl)-3-(4-methoxyphenyl)isoquinoline dihydrochloride] yielded a melting point of 138 to 143 °C. Then `CCN1CCN(c2nc(-c3ccc(C(C)CCO)cc3)cc3ccccc23)CC1` (stereo not shown) (as salt: oxalate) [Example 383, 1-(4-Ethylpiperazin-1-yl)-3-[4-(3-Hydroxy-1-Methylpropyl)Phenyl]Isoquinoline Oxalate], with 106 to 108 °C.

`CCN1CCN(c2nc(-c3cc(OC)ccn3)cc3ccccc23)CC1` (as salt: hydrochloride) [Example 335, 1-(4-ethylpiperazin-1-yl)-3-(4-methoxypyridin-2-yl)isoquinoline dihydrochloride]: the melting point was 172 to 173 °C (dec.). For `CCN1CCN(c2nc(-c3ccc(CN4CCSCC4)cc3)cc3ccccc23)CC1` (as salt: hydrochloride) [Example 94, 3-(4-Thiomorpholinylmethylphenyl)-1-(4-ethylpiperazin-1-yl)isoquinoline Hydrochloride], the melting point is 193 to 197 °C.

`CCN1CCN(c2nc(C3=CCCc4cc(OC)ccc43)cc3ccccc23)CC1` (as salt: oxalate) [Example 117, 3-(7-Methoxy-1,2-dihydronaphthalen-4-yl)-1-(4-ethylpiperazin-1-yl)isoquinoline Oxalate]: the melting point lay within 112 to 114 °C.

As to `CCN1CCN(c2nc(-c3cc(F)c(OCCOC)c(F)c3)cc3ccccc23)CC1` (as salt: hydrochloride) [Example 368, 1-(4-ethylpiperazin-1-yl)-3-(3,5-difluoro-4-methoxyethoxyphenyl)isoquinoline dihydrochloride], the melting point fell in the range of 110 to 112 °C. Then `CCCN1CCN(c2nc(-c3ccc(OCCO)cc3)cc3ccccc23)CC1` (as salt: hydrochloride), with 220 to 225 °C; and `CCN1CCN(c2nc(-c3ccc(C(=O)NC4CCCC4)cc3)cc3ccsc23)CC1` (as salt: hydrochloride) [Example 453, 7-(4-ethylpiperazin-1-yl)-5-[4-(N-cyclopentylcarbamoyl)phenyl]thieno[2,3-c]pyridine dihydrochloride], with 148 to 149 °C. Then `CCN1CCN(c2nc(-c3ccc(NS(=O)(=O)CC)cc3)cc3ccccc23)CC1` (as salt: hydrochloride) [Example 71, 3-(4-Ethylsulfonylaminophenyl)-1-(4-Ethylpiperazin-1-Yl)Isoquinoline Hydrochloride], with 198 to 201 °C. For `CCN1CCN(c2nc(-c3ccc(S(=O)(=O)NCCO)cc3)cc3ccccc23)CC1` (as salt: hydrochloride) [Example 347, 1-(4-ethylpiperazin-1-yl)-3-{4-[N-(2-hydroxyethyl)sulfamoyl]phenyl}isoquinoline dihydrochloride] the value was 136 to 138.5 °C; for `CCN1CCN(c2nc(-c3ccc(C(=O)NC)cc3)cc3ccccc23)CC1` (as salt: hydrochloride) [Example 365, 1-(4-ethylpiperazin-1-yl)-3-[4-(N-methylcarbamoyl)phenyl]isoquinoline dihydrochloride], 161.5 to 163 °C. Take `CCN1CCN(c2nc(-c3ccc(CS(C)(=O)=O)cc3)cc3ccccc23)CC1` (as salt: hydrochloride) [Example 90, 3-(4-Methylsulfonylmethylphenyl)-1-(4-ethylpiperazin-1-yl)isoquinoline Hydrochloride]: the melting point fell in the range of 260 to 262 °C. For `CCCC(O)c1ccc(-c2cc3ccccc3c(N3CCN(CC)CC3)n2)cc1` (stereo not shown) (as salt: oxalate) [Example 21, 1-(4-ethylpiperazin-1-yl)-3-[4-(1-hydroxybutyl)phenyl]isoquinoline oxalate] the value was 198.5 to 199.5 °C; for `CCN1CCN(c2nc(-c3ccc(OCCO)cc3OC)cc3ccccc23)CC1` (as salt: hydrochloride) [Example 425, 1-(4-ethylpiperazin-1-yl)-3-[4-(2-hydroxyethoxy)-2-methoxyphenyl]isoquinoline], 140 to 142 °C.

For the origin of these results see US6875761B2 (Eisai Co., Ltd., priority 1997, dated 2005).
